PMC5665883, “Antithrombotic properties of JJ1, a potent and novel thrombin inhibitor” (Scientific Reports, 2017)
Marks after values point to notes of the source that are not given here.

How the values were obtained:
tPA = tPA (Homo sapiens, UniProt P00750); assay: Chromogenic substrate assay, Ki (Dixon); assay type: biochemical; conditions: for Ki: tPA
Streptokinase = Streptokinase (Homo sapiens, UniProt P00747); assay: Chromogenic substrate assay, Ki (Dixon); assay type: biochemical; conditions: for Ki: Streptokinase
human plasma [1] = assay: In vitro aPTT clotting time; assay type: biochemical; conditions: in vitro, 5.0 μM
Description: (§1) The aPTT and PT were determined using a Thrombotimer (Behnk Elektronik, Norderstedt, Germany) in accordance with the manufacturer’s instructions and as previously described. Briefly, citrated normal human plasma (90 μL) was mixed with 10 μL JJ1 and incubated for 1 min at 37 °C. Subsequently, the aPTT assay reagent (100 μL) was added, the plasma sample was incubated for an additional 1 min at 37 °C, 20 mM CaCl2 (100 μL) was added, and the clotting times were recorded. For the PT assays, citrated normal human plasma (90 μL) was mixed with 10 μL JJ1 stock solution and was incubated for 1 min at 37 °C. The PT assay reagent (200 μL), which had been pre-incubated for 10 min at 37 °C, was subsequently added and the clotting time was recorded. The PT results were expressed in seconds and as International Normalized Ratios (INR): INR = (PT sample/PT control)^ISI, where ISI = international sensitivity index. The aPTT results were also expressed in seconds. All experimental protocols (KNUH 2012-01-010) were approved by the Institutional Review Board of Kyungpook National University Hospitals (Daegu, Republic of Korea).

Trypsin = assay: Chromogenic substrate assay, Ki (Dixon); assay type: biochemical, human; conditions: for Ki: Trypsin, mean ± SD (n = 5)
Description: (§2) Chromogenic substrate assays were performed using a Labsystems IEMS (Cergy Pontoise, France) microtiter plate reader. K i values were calculated according to the method of Dixon[65]. In each assay, the compound was tested at a minimum of seven concentrations, in duplicate, to obtain an inhibition curve. The following general procedures were adopted for each assay. In a 96-well microtiter plate, 25 μL of inhibitor solution or buffer was added to 50 μL of substrate. The enzyme solution (25 μL) was added just before the plate was placed in the microtiter plate reader for 1 h at 37 °C. The hydrolysis of the substrate yields p-nitroaniline, which was continuously monitored spectrophotometrically at 405 nm. The maximal initial reaction rates were calculated and expressed as millioptical density per minute.

Urokinase = Urokinase (Homo sapiens, UniProt P00749); assay: Chromogenic substrate assay, Ki (Dixon); assay type: biochemical; conditions: for Ki: Urokinase
Plasmin = molecular target: T1, Plasmin (Homo sapiens, UniProt P00747); assay: Chromogenic substrate assay, Ki (Dixon); assay type: biochemical; conditions: for Ki: Plasmin
T1 construct: thrombin versus trypsin, factor Xa, elastase, plasmin, protein Ca, streptokinase, tPA, and urokinase

Factor Xa = molecular target: T2, Factor Xa (Homo sapiens, UniProt P00742); assay: Chromogenic substrate assay, Ki (Dixon); assay type: biochemical; conditions: for Ki: Factor Xa
T2 construct: thrombin versus trypsin, factor Xa, elastase, plasmin, protein Ca, streptokinase, tPA, and urokinase; purchased Haematologic Technologies (Essex Junction, VT)

human plasma [2] = assay: In vitro PT clotting time; assay type: biochemical; conditions: in vitro, 5.0 μM
Description: as §1

[3] = In vivo tail bleeding time; set-up: species or system C57BL/6 mice; conditions: mice, i.v. injection
Description: Tail bleeding times were measured by using the method of Dejana et al.[63],[64]. Briefly, C57BL/6 mice were fasted overnight prior to the experiments. One hour after the i.v. administration of JJ1, the tails of the mice were transected at 2 mm from their tips. The bleeding time was defined as the time elapsed until the bleeding stopped. Bleeding times exceeding 15 min were recorded as lasting for 15 min.

Protein Ca = molecular target: T3, Protein Ca (Homo sapiens, UniProt P04070); assay: Chromogenic substrate assay, Ki (Dixon); assay type: biochemical; conditions: for Ki: Protein Ca
T3 construct: thrombin versus trypsin, factor Xa, elastase, plasmin, protein Ca, streptokinase, tPA, and urokinase

[4] = FeCl3-induced arterial thrombosis model; assay type: in vivo, C57BL/6 mice; conditions: mice, 150 μg/mouse
Description: The FeCl3-induced thrombosis mouse model was established as previously described. Male C57BL/6 mice were fasted overnight and were administered JJ1 in DMSO by intravenous injection. Then, mice were anesthetized using 3% isoflurane (Forane®, Choongwae Pharma. Corp., Seoul, Korea) and injected intravenously with 0.1 mL 0.1% rhodamine 6 G (Sigma). A testicular artery (200 μm in diameter) was carefully exposed and a cotton thread (200 μm in diameter) saturated with 0.25 mol/L FeCl3 was applied to the adventitial surface. After 5 min, the cotton thread was removed, and the wound was flushed with saline solution. Thrombus formation was monitored at 35 °C by 3-dimensional imaging as previously described. The size and time of thrombus formation were monitored, and the findings were scored as follows: no thrombus, 0; small thrombus (50 μm × 75 μm), 1; medium-sized thrombus (100 μm × 150 μm), 2; large thrombus (200 μm × 300 μm), 3. The time from FeCl3-mediated endothelial injury to occlusion of the testicular artery by a large thrombus was measured.

[5] = test system: neuropeptide Y receptor type 5; set-up: method as in PMID 21948594; conditions: not reported in publications; cited from earlier work
[6] = set-up: method as in PMID 21948594; conditions: not reported in publications; cited from earlier work
human plasma [7] = assay: In vitro aPTT clotting time; assay type: biochemical; conditions: at the maximum antithrombotic dose
human α-thrombin = molecular target: T4, human α-thrombin (Homo sapiens, UniProt P00734); assay: Chromogenic substrate assay, Ki (Dixon); assay type: biochemical
T4 construct: purchased Haematologic Technologies (Essex Junction, VT)

Elastase = molecular target: T5, Elastase (Homo sapiens, UniProt P08246); assay: Chromogenic substrate assay, Ki (Dixon); assay type: biochemical; conditions: K i Elastase/K i α-thrombin
T5 sequence (P08246 30-247): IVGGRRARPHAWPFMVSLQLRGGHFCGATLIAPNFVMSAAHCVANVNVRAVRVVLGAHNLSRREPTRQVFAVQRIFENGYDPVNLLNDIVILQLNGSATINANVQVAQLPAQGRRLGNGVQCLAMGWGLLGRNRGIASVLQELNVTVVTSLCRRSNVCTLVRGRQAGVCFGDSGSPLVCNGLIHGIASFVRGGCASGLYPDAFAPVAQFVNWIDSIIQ
Description: as §2

thrombin [8] = molecular target: T6, thrombin (Homo sapiens, UniProt P00734); assay: Thrombin activity assay (amidolytic activity, S-2238); assay type: biochemical; conditions: α-Thrombin, chromogenic substrate; read-out: IC50, inhibition of amidolytic activity of thrombin (converted)
T6 construct: thrombin solution (150 μL, 10 U/mL) was added; purchased Haematologic Technologies (Essex Junction, VT)
Description: Following a 2-min incubation at 37 °C, thrombin solution (150 μL, 10 U/mL) was added, followed by incubation at 37 °C for 1 min. A solution of the thrombin substrate, S-2238, (150 μL, 1.5 mM) solution was subsequently added and the absorbance at 405 nm was monitored for 120 s using a spectrophotometer (TECAN, Männedorf, Switzerland).

human plasma [9] = assay: In vitro PT clotting time; assay type: biochemical; conditions: at the maximum antithrombotic dose
thrombin [10] = molecular target: T6, thrombin; assay: Enzyme-based assay of purchased virtual screening molecules, single dose; assay type: biochemical; conditions: single concentration of 50 μM
Text: Prior to the high-throughput virtual screening, we selected the best crystal structure for docking with DOCK 3.6[17] using the selected inhibitors and their physicochemically matched but topologically different decoys. […] Because the earlier enrichment of true positives is more important for high throughput SBVS, we used the value of LogAUC as a metric, selecting 2CF9-H[18] as the best structure. […] Besides, the enrichment at 1% (EF1) was 37.1. The values of LogAUC and EF1 were approximately two-fold higher than the averages (26.1 for LogAUC and 17.1 for EF1) (Figs 1 and S1). Some structures had higher AUC values than that of 2CF9-H, but the value of LogAUC was the highest for 2CF9-H (Fig. S1). The optimization necessitated the calculations of more than 2 million protein and ligand pairs. The high speed of DOCK 3.6 and the in-house Linux cluster system consisting of 128 cores efficiently managed the calculations in three days. Of the candidate molecules having the lowest scores in the high-throughput SBVS, we chose the molecules with desirable geometries and physicochemical properties by a simple manual and visual inspection. […] It is known that the scoring function of virtual screening itself is insufficient to capture such an abnormality. Table S1 and Fig. S2 list the top 40 molecules, which were selected through high-throughput SBVS; we purchased these molecules to measure enzymatic inhibitory activity.

Chain of Streptokinase (P00747 581-810 limits assumed): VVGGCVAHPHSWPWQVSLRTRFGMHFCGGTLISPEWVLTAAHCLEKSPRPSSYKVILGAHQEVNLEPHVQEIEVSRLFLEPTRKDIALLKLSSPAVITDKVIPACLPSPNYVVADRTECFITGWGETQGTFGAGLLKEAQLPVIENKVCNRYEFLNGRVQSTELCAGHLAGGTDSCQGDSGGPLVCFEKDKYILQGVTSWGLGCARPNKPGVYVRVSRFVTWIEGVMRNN
T1 sequence (P00747 581-810 limits assumed): as above
T1 sequence (P00747 97-580 limits assumed): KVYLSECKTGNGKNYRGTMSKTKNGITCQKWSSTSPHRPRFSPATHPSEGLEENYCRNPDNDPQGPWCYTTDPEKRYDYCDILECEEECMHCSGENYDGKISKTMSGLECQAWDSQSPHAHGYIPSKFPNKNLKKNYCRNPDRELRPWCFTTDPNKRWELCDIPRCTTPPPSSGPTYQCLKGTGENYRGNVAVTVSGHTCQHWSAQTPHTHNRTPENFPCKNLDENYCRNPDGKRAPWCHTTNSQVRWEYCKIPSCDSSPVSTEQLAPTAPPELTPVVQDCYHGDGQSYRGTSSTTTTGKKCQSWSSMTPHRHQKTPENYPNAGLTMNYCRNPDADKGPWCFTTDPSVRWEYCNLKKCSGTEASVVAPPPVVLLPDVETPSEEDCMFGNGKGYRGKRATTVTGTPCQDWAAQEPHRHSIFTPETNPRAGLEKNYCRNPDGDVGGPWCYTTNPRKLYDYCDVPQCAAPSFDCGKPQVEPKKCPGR
T3 sequence (P04070 212-450 limits assumed): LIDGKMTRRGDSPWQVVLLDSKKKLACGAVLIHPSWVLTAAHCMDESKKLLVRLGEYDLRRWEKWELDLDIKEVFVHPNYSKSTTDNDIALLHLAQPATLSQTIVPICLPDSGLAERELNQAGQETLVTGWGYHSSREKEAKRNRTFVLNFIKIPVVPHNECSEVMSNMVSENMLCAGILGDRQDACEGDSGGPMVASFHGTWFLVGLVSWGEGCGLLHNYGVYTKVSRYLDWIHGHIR
T3 sequence (P04070 43-197 limits assumed): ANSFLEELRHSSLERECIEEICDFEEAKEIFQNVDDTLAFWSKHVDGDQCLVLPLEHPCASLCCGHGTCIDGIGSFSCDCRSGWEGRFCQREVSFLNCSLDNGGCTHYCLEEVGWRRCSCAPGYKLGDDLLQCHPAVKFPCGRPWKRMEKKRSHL
T2 sequence (P00742 235-488 limits assumed): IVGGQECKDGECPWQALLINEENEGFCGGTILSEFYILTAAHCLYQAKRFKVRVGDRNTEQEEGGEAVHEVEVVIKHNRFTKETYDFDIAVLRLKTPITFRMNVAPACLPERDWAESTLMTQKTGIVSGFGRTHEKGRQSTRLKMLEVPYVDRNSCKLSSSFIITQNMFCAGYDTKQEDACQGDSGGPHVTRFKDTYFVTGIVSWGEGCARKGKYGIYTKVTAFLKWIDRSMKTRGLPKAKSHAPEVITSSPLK
T2 sequence (P00742 41-179 limits assumed): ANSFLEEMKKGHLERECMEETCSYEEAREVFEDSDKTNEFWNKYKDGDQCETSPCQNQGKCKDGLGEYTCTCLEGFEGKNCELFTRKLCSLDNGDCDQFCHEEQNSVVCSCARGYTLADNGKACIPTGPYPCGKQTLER
Chain of tPA (P00750 36-562): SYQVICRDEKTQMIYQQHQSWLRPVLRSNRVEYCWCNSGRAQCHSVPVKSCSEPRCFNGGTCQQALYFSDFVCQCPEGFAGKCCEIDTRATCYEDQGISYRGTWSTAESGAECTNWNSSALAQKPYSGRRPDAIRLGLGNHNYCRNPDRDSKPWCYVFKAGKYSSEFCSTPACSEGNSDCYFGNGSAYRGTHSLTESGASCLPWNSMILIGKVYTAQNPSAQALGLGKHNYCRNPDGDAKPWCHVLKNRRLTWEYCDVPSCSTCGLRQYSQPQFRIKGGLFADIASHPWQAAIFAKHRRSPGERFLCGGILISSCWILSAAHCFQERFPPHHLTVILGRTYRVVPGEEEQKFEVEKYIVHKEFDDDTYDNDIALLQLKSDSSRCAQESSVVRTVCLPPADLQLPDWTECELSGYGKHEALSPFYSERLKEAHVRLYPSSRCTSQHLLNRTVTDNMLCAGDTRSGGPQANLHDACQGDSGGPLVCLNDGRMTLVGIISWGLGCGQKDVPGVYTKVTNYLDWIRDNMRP

For CC1CNc2c(cccc2S(=O)(=O)N[C@@H](CCCNC(=N)N)C(=O)N2CC[C@@H](C)C[C@@H]2C(=O)O)C1 (stereo partly drawn) [Argatroban], the Ki (tPA) was greater than 250000 nM, the Ki (Streptokinase) was greater than 250000 nM and the aPTT (human plasma [1]) was 61.4 ± 0.8 s. For the same compound, the Ki (Trypsin) was 4200 ± 500 nM, the Ki (Urokinase) was greater than 250000 nM and the Ki (Plasmin) was greater than 250000 nM. For the same compound, the Ki (Factor Xa) was greater than 250000 nM, the PT (human plasma [2]) was 27.4 ± 0.7 s and the “PT (INR)” value (human plasma [2]) was 7.40* INR. The Tail bleeding time ([3]; 5.08 μg/mouse) was 62.2 ± 0.8 s, the Ki (Protein Ca) was greater than 250000 nM and the Thrombus size score ([4]; 60 min after FeCl3-treatment, score 0-3) was 1.15 ± 0.12. For the same compound, the “Time to large thrombus formation” value ([4]; FeCl3-induced thrombosis) was 61.2 ± 5.1 min.

For c1ccc(Nc2nc(NC3CCCCC3)nc3ccccc23)cc1 [CHEMBL17914], the “Activity linked in ChEMBL” value [5] is given as “linked with the inhibition of neuropeptide Y receptor type 5”.

For c1ccc2c(NC3CCCC3)nc(Nc3ccc4c(c3)OCO4)nc2c1 [CHEMBL578118], the “Activity linked in ChEMBL” value [6] is listed as “antimalarial effects”.

For Oc1ccccc1Nc1nc(NC2CCCC2)c2ccccc2n1 [CHEMBL581623], the “Activity linked in ChEMBL” value [6] is listed as “antimalarial effects”.

In the case of CN[C@H](Cc1ccccc1)C(=O)N1CCC[C@H]1C(=O)N[C@H](C=O)CCCN=C(N)N [Efegatran], the “Prolongation of aPTT” value (human plasma [7]) is reported as 1.86 fold, the Selectivity ratio (tPA) is reported as 88 and the Ki (tPA) is reported as 1500 ± 300 nM. For the same compound, the Selectivity ratio (Streptokinase) was 82, the Ki (Streptokinase) was 1400 ± 110 nM and the aPTT (human plasma [1]) was 44.2 ± 0.6 s. The Selectivity ratio (Trypsin; K i Trypsin/K i α-thrombin) was 0.65, the Ki (Trypsin) was 11 ± 4.1 nM and the Selectivity ratio (Urokinase) was 147. For the same compound, the Ki (Urokinase) was 2500 ± 300 nM, the Selectivity ratio (Plasmin) was 28 and the Ki (Plasmin) was 480 ± 40 nM. For the same compound, the Selectivity ratio (Factor Xa) was 5411, the Ki (Factor Xa) was 92000 ± 9000 nM and the Selectivity ratio (human α-thrombin; K i enzyme/K i α-thrombin) was 1. For the same compound, the Ki (human α-thrombin; mean ± SD (n = 5)) was 17 ± 0.3 nM, the PT (human plasma [2]) was 19.2 ± 0.4 s and the “PT (INR)” value (human plasma [2]) was 3.15* INR. For the same compound, the Selectivity ratio (Elastase) was >14,000, the Tail bleeding time ([3]; 4.17 μg/mouse) was 47.4 ± 1.1 s and the Selectivity ratio (Protein Ca) was 70. The Ki (Protein Ca) was 1200 ± 150 nM, the IC50 (thrombin [8]) was 25 nM and the “Prolongation of PT” value (human plasma [9]) was 1.61 fold.

For CCN(c1cccc(C)c1)S(=O)(=O)c1cc([N+](=O)[O-])ccc1C [ZINC04991109], the “Degree of inhibition in the enzyme-based assay” value (thrombin [10]) was “inhibitory effects”.

For COc1ccc(C(=O)NCc2ccco2)cc1S(=O)(=O)N1CCCCC1 [ZINC09063750], the “Degree of inhibition in the enzyme-based assay” value (thrombin [10]) was “inhibitory effects”.
